Measurements published in patent publication US9409905B2, “Antibacterial compounds and methods for use” (PTC THERAPEUTICS, INC., priority 2011, dated 2016).
In brackets after ≈: the same amount, converted by molar mass.

Key:
[1] = tested on: Acinetobacter baumannii (A. baumannii) BAA747; assay: Antibacterial activity, MIC (Table 4); assay type: cell-based; details: A. baumannii BAA747, read-out: MIC, BAA747
Method in brief: (§1)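 Values are minimum inhibitory concentrations in μg/mL from broth microdilution, meaning no macroscopically visible growth at that concentration. Resistant MXX isolates are multi-drug resistant clinical strains.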

[2] = tested on: Klebsiella pneumoniae (K. pneumoniae) 35657; assay: Antibacterial activity, MIC (Table 4); assay type: cell-based; details: K. pneumoniae 35657, read-out: MIC, 35657
Method in brief: as §1

[3] = tested on: Neisseria meningitidis (N. meningitidis) 13090; assay: Antibacterial activity, MIC (Table 8); assay type: cell-based
Method in brief: (§2)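 Values are minimum inhibitory concentrations in μg/mL, determined by microbroth dilution as the lowest concentration with no macroscopically visible growth.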

A. baumannii MXX2240 = assay: Antibacterial activity, MIC, resistant strain (Table 4); assay type: cell-based; details: Acinetobacter baumannii, MXX2240; resistant A. baumannii MMX2240, multi-drug resistant clinical isolate; read-out: MIC, MMX2240
Method in brief: as §1

K. pneumoniae MXX1232 = assay: as above; assay type: cell-based; details: Klebsiella pneumoniae, MXX1232; resistant K. pneumoniae MMX1232, multi-drug resistant clinical isolate; read-out: MIC, MMX1232
Method in brief: as §1

[4] = tested on: Staphylococcus aureus (S. aureus) 29213; assay: Antibacterial activity, microbroth dilution MIC (Table 1); assay type: cell-based; details: microbroth dilution, Gram-positive S. aureus 29213, read-out: MIC, 29213
Method in brief: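 Lowest concentration stopping macroscopically visible growth under test conditions, by broth microdilution, defines the MIC (μg/mL).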

[5] = tested on: Escherichia coli (E. coli) BAS849; assay: as above; assay type: cell-based; details: microbroth dilution, super sensitive Gram-negative E. coli BAS849, read-out: MIC, BAS849
Method in brief: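 In a microbroth dilution test, the minimum inhibitory concentration was defined as the lowest compound level preventing growth seen by eye, and was given in μg/mL.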

E. coli 25922 = assay: as above; assay type: cell-based, Escherichia coli; details: Escherichia coli; microbroth dilution; control Gram-negative E. coli 25922 strain; read-out: MIC, 25922
Method in brief: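 Broth microdilution against S. aureus 29213, E. coli 25922 and hypersensitive E. coli BAS849. MIC in μg/mL is the lowest drug concentration preventing macroscopically visible growth under test conditions.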

[6] = tested on: Moraxella catarrhalis (M. catarrhalis) 25238; assay: Antibacterial activity, MIC (Table 7); assay type: cell-based
Method in brief: as §2

E. coli ELZ4251 = assay: Antibacterial activity, MIC, multi-drug resistant clinical isolate (Table 3); assay type: cell-based; details: Escherichia coli
Method in brief: (§3)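 Microbroth dilution. Endpoint: absence of macroscopically visible growth. Value = MIC, μg/mL.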

E. coli ELZ4000 = assay: as above; assay type: cell-based; details: Escherichia coli, ELZ4000, read-out: MIC ELZ4000
Method in brief: as §3

E. coli LZ3111 = assay: Antibacterial activity, MIC, quinolone resistant strain (Table 2); assay type: cell-based; details: Escherichia coli, LZ3111, read-out: MIC LZ3111
Method in brief: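 Strain carries mutations conferring high-level quinolone resistance; tested by microbroth dilution, MIC recorded in μg/mL as lowest concentration preventing visible growth.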

[7] = tested on: Haemophilus influenzae (H. influenzae) 49247; assay: Antibacterial activity, MIC (Table 6); assay type: cell-based
Method in brief: as §2

[8] = tested on: Pseudomonas aeruginosa (P. aeruginosa) 27853; assay: Antibacterial activity, MIC (Table 5); assay type: cell-based; details: P. aeruginosa 27853, read-out: MIC, 27853
Method in brief: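 Compounds are serially diluted in broth and inoculated with the organism. Growth is then inspected macroscopically, and the lowest concentration showing none is taken as the MIC (μg/mL).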

Cc1c(-c2ccc3c(c2)cc(CN2CCC2)n3C)[nH]c(=O)c(C(=O)O)c1O [Cpd 316, 6-(2-(azetidin-1-ylmethyl)-1-methyl-1H-indol-5-yl)-4-hydroxy-5-methyl-2-oxo-1,2-dihydropyridine-3-carboxylic acid]
MIC [1]: 3.5 to 12.5 µg/mL (≈ 9.53 to 34 µM) | MIC [2]: 3.5 to 12.5 µg/mL (≈ 9.53 to 34 µM) | MIC [3]: 12.5 to 150 µg/mL (≈ 34 to 408 µM) | MIC (A. baumannii MXX2240): 1 to 3.5 µg/mL (≈ 2.72 to 9.53 µM) | MIC (K. pneumoniae MXX1232): 12.5 to 150 µg/mL (≈ 34 to 408 µM) | MIC [4]: 12.5 to 150 µg/mL (≈ 34 to 408 µM) | MIC [5]: < 1 µg/mL | MIC (E. coli 25922): 1 to 3.5 µg/mL (≈ 2.72 to 9.53 µM) | MIC [6]: 3.5 to 12.5 µg/mL (≈ 9.53 to 34 µM) | MIC (E. coli ELZ4251): 3.5 to 12.5 µg/mL (≈ 9.53 to 34 µM) | MIC (E. coli ELZ4000): 3.5 to 12.5 µg/mL (≈ 9.53 to 34 µM) | MIC (E. coli LZ3111): < 1 µg/mL | MIC [7]: 1 to 3.5 µg/mL (≈ 2.72 to 9.53 µM) | MIC [8]: 12.5 to 150 µg/mL (≈ 34 to 408 µM)

CCc1c(-c2ccc3c(c2)cc(CNC2CCC2)n3C)[nH]c(=O)c(C(=O)O)c1O.Cl [Cpd 232, 6-(2-((cyclobutylamino)methyl)-1-methyl-1H-indol-5-yl)-5-ethyl-4-hydroxy-2-oxo-1,2-dihydropyridine-3-carboxylic acid hydrochloride]
MIC [1]: < 1 µg/mL | MIC [2]: 1 to 3.5 µg/mL | MIC [3]: < 1 µg/mL | MIC (A. baumannii MXX2240): 1 to 3.5 µg/mL | MIC (K. pneumoniae MXX1232): 12.5 to 150 µg/mL | MIC [4]: 3.5 to 12.5 µg/mL | MIC [5]: < 1 µg/mL | MIC (E. coli 25922): < 1 µg/mL | MIC [6]: < 1 µg/mL | MIC (E. coli ELZ4251): 3.5 to 12.5 µg/mL | MIC (E. coli ELZ4000): 3.5 to 12.5 µg/mL | MIC (E. coli LZ3111): 1 to 3.5 µg/mL | MIC [7]: < 1 µg/mL | MIC [8]: 3.5 to 12.5 µg/mL

CCc1c(-c2ccc3c(c2)cc(CNC2CCCC2)n3C)[nH]c(=O)c(C(=O)O)c1O.Cl [Cpd 229, 6-(2-((cyclopentylamino)methyl)-1-methyl-1H-indol-5-yl)-5-ethyl-4-hydroxy-2-oxo-1,2-dihydropyridine-3-carboxylic acid hydrochloride]
MIC [1]: < 1 µg/mL | MIC [2]: < 1 µg/mL | MIC [3]: < 1 µg/mL | MIC (A. baumannii MXX2240): 1 to 3.5 µg/mL | MIC (K. pneumoniae MXX1232): 12.5 to 150 µg/mL | MIC [4]: 3.5 to 12.5 µg/mL | MIC [5]: < 1 µg/mL | MIC (E. coli 25922): < 1 µg/mL | MIC [6]: < 1 µg/mL | MIC (E. coli ELZ4251): 3.5 to 12.5 µg/mL | MIC (E. coli ELZ4000): 12.5 to 150 µg/mL | MIC (E. coli LZ3111): 3.5 to 12.5 µg/mL | MIC [7]: < 1 µg/mL | MIC [8]: 3.5 to 12.5 µg/mL

CCNCc1cc2cc(-c3[nH]c(=O)c(C(=O)O)c(O)c3CC)ccc2n1C [Cpd 165, 5-ethyl-6-(2-((ethylamino)methyl)-1-methyl-1H-indol-5-yl)-4-hydroxy-2-oxo-1,2-dihydropyridine-3-carboxylic acid]
MIC [1]: < 1 µg/mL | MIC [2]: < 1 µg/mL | MIC [3]: < 1 µg/mL | MIC (A. baumannii MXX2240): 3.5 to 12.5 µg/mL (≈ 9.47 to 33.8 µM) | MIC (K. pneumoniae MXX1232): 12.5 to 150 µg/mL (≈ 33.8 to 406 µM) | MIC [4]: 3.5 to 12.5 µg/mL (≈ 9.47 to 33.8 µM) | MIC [5]: < 1 µg/mL | MIC (E. coli 25922): < 1 µg/mL | MIC [6]: < 1 µg/mL | MIC (E. coli ELZ4251): 1 to 3.5 µg/mL (≈ 2.71 to 9.47 µM) | MIC (E. coli ELZ4000): 3.5 to 12.5 µg/mL (≈ 9.47 to 33.8 µM) | MIC (E. coli LZ3111): 1 to 3.5 µg/mL (≈ 2.71 to 9.47 µM) | MIC [7]: < 1 µg/mL | MIC [8]: 3.5 to 12.5 µg/mL (≈ 9.47 to 33.8 µM)

CCc1c(-c2ccc3c(c2)cc(CN2CCC(N)CC2)n3C)[nH]c(=O)c(C(=O)O)c1O [Cpd 252, 6-(2-((4-aminopiperidin-1-yl)methyl)-1-methyl-1H-indol-5-yl)-5-ethyl-4-hydroxy-2-oxo-1,2-dihydropyridine-3-carboxylic acid]
MIC [1]: 12.5 to 150 µg/mL (≈ 29.4 to 353 µM) | MIC [2]: 1 to 3.5 µg/mL (≈ 2.36 to 8.24 µM) | MIC [3]: 1 to 3.5 µg/mL (≈ 2.36 to 8.24 µM) | MIC (A. baumannii MXX2240): 12.5 to 150 µg/mL (≈ 29.4 to 353 µM) | MIC (K. pneumoniae MXX1232): 12.5 to 150 µg/mL (≈ 29.4 to 353 µM) | MIC [4]: 12.5 to 150 µg/mL (≈ 29.4 to 353 µM) | MIC [5]: < 1 µg/mL | MIC (E. coli 25922): 1 to 3.5 µg/mL (≈ 2.36 to 8.24 µM) | MIC [6]: 3.5 to 12.5 µg/mL (≈ 8.24 to 29.4 µM) | MIC (E. coli ELZ4251): 12.5 to 150 µg/mL (≈ 29.4 to 353 µM) | MIC (E. coli ELZ4000): 12.5 to 150 µg/mL (≈ 29.4 to 353 µM) | MIC (E. coli LZ3111): 1 to 3.5 µg/mL (≈ 2.36 to 8.24 µM) | MIC [7]: 1 to 3.5 µg/mL (≈ 2.36 to 8.24 µM) | MIC [8]: 3.5 to 12.5 µg/mL (≈ 8.24 to 29.4 µM)

CCc1c(-c2ccc3c(c2)cc(CN2C[C@H]4C[C@@H](N(C)C)C[C@H]4C2)n3C)[nH]c(=O)c(C(=O)O)c1O [Cpd 285, 6-(2-(((3aR,5r,6aS)-5-(dimethylamino)hexahydrocyclopenta[c]pyrrol-2(1H)-yl)methyl)-1-methyl-1H-indol-5-yl)-5-ethyl-4-hydroxy-2-oxo-1,2-dihydropyridine-3-carboxylic acid]
MIC [1]: 3.5 to 12.5 µg/mL (≈ 7.31 to 26.1 µM) | MIC [2]: 1 to 3.5 µg/mL (≈ 2.09 to 7.31 µM) | MIC [3]: < 1 µg/mL | MIC (A. baumannii MXX2240): 12.5 to 150 µg/mL (≈ 26.1 to 313 µM) | MIC (K. pneumoniae MXX1232): 12.5 to 150 µg/mL (≈ 26.1 to 313 µM) | MIC [4]: 12.5 to 150 µg/mL (≈ 26.1 to 313 µM) | MIC [5]: < 1 µg/mL | MIC (E. coli 25922): 1 to 3.5 µg/mL (≈ 2.09 to 7.31 µM) | MIC [6]: 1 to 3.5 µg/mL (≈ 2.09 to 7.31 µM) | MIC (E. coli ELZ4251): 3.5 to 12.5 µg/mL (≈ 7.31 to 26.1 µM) | MIC (E. coli ELZ4000): 12.5 to 150 µg/mL (≈ 26.1 to 313 µM) | MIC (E. coli LZ3111): 1 to 3.5 µg/mL (≈ 2.09 to 7.31 µM) | MIC [7]: 1 to 3.5 µg/mL (≈ 2.09 to 7.31 µM) | MIC [8]: 12.5 to 150 µg/mL (≈ 26.1 to 313 µM)
